Series [1] is described as follows: Toxicity in mouse infected with Schistosoma mansoni BH cercariae at 400 mg/kg, po after 14 days administered as dose starting on day 49 post-infection and measured after 14 days. Type of series: organism-based. The conditions noted are these: in vivo, 336 h, time 14 day.
Series [2] has as its system Schistosoma mansoni. The experiment in a line: Antischistosomal activity against Schistosoma mansoni BH cercariae infected in mouse assessed as reduction in spleen weight at 400 mg/kg, po administered as dose starting on day 49 post-infection and measured after 14 days post treatment relative to control. Type of series: functional. Also noted: scale not given: the % may be the effect or the level left. The conditions noted are these: time 14 day.

Series [3] relates to Schistosoma mansoni. The experiment in a line: Antischistosomal activity against Schistosoma mansoni BH cercariae infected in mouse assessed as reduction in liver weight at 400 mg/kg, po administered as dose starting on day 49 post-infection and measured after 14 days post treatment relative to control. The series is classed as functional. Also noted: scale not given: the % may be the effect or the level left. As to conditions: time 14 day.

The test system of series [4] is Schistosoma mansoni. The experiment in a line: Antischistosomal activity against Schistosoma mansoni BH cercariae infected in mouse assessed as reduction in egg burden in fecal at 400 mg/kg, po administered as dose starting on day 49 post-infection and measured after 14 days post treatment relative to control. Also noted: scale not given: the % may be the effect or the level left. The conditions noted are these: time 14 day. The series is classed as functional.

Series [5] concerns Schistosoma mansoni. The experiment in a line: Antischistosomal activity against Schistosoma mansoni BH cercariae infected in mouse assessed as reduction in egg burden in wall of intestine at 400 mg/kg, po administered as dose starting on day 49 post-infection and measured after 14 days post treatment relative to control. The series is classed as functional. Also noted: scale not given: the % may be the effect or the level left. As to conditions: time 14 day.

For series [6], the system named is Schistosoma mansoni. The experiment in a line: Antischistosomal activity against Schistosoma mansoni BH cercariae infected in mouse assessed as reduction in worm burden at 400 mg/kg, po administered as single dose starting on day 49 post-infection and measured after 14 days post treatment relative to control. The series is classed as functional. Also noted: scale not given: the % may be the effect or the level left. As to conditions: time 14 day.

Series [7] has as its system Schistosoma mansoni. The experiment in a line: Antischistosomal activity against female Schistosoma mansoni BH assessed as dilation of ovaries at 25 uM after 72 hrs microscopic method. The series is classed as functional, organism-based.
The test system of series [8] is Schistosoma mansoni. Put plainly: Antischistosomal activity against male Schistosoma mansoni BH assessed as dilation of testes at 25 uM after 72 hrs microscopic method. Type of series: functional, organism-based.
For series [9], the system named is Schistosoma mansoni. Put plainly: Antischistosomal activity against Schistosoma mansoni BH assessed as reduction in oviposition at 6.25 to 25 uM after 72 hrs light microscopic method. The series is classed as functional, organism-based. As to conditions: dose 6.25-25 µM.
Series [10] relates to Schistosoma mansoni. The experiment in a line: Antischistosomal activity against Schistosoma mansoni BH assessed as reduction in parasitic viability at 25 uM after 24 hrs inverted light microscopic method. The series is classed as functional, organism-based.
The subject of series [11] is Schistosoma mansoni. Put plainly: Antischistosomal activity against Schistosoma mansoni BH assessed as reduction in parasitic viability after 72 hrs by inverted microscopic method. Type of series: functional.
A short description of series [12]: Cytotoxicity against human HaCaT cells assessed as reduction in cell viability after 48 hrs by MTT assay. Type of series: cell-based. For orientation: Formazan colour is commonly taken as a measure of viable cells.
Series [13] can be described thus: Selectivity index, ratio of CC50 for cytotoxicity against human HaCaT cells to LC50 for antischistosomal activity against Schistosoma mansoni BH. Type of series: toxicity, cell-based. The conditions noted are these: read-out: Selectivity Index.
Series [14] is described as follows: Cytotoxicity against human SH-SY5Y cells assessed as reduction in cell viability after 48 hrs by MTT assay. Type of series: cell-based.
The nature of series [15]: Selectivity index, ratio of CC50 for cytotoxicity against human SH-SY5Y cells to LC50 for antischistosomal activity against Schistosoma mansoni BH. The series is classed as toxicity, cell-based. The conditions noted are these: read-out: Selectivity Index.
Series [16] has as its system Schistosoma mansoni. The experiment in a line: Antischistosomal activity against Schistosoma mansoni BH assessed as reduction in oviposition at 25 uM after 72 hrs light microscopic method. The series is classed as functional, organism-based.

Activity calls are given as the source filed them. The calls are words filed in the database; no cut-off is given here.

By LC50 is commonly meant the concentration lethal to half of the exposed cells or organisms. For orientation: CC50 means the concentration that lowers cell viability or growth by half. As to `C=C1[C@@H]2CC[C@H]3[C@]4(C)CCC[C@@](C)(C(=O)O)[C@H]4CC[C@]3(C2)[C@H]1OC(=O)C=C(C)C`, the Activity result is given as “Non-Toxic” in series [1]; 29.8% in series [2]; 23.5% in series [3]; 71.6% in series [4]; 69.2% in [5]; 61.9% in [6]. The outcome in [7], in series [8], in [9] and in series [10] was Active. The LC50 in series [11] was determined as 11.6 µM. Further, the CC50 at 48 h in [12] came to 147 µM; in series [14] it was 106 µM. The figures for the selectivity ratio in series [13] and in series [15] were 12.7 and 9.1, respectively.
For the compound `C=C1C[C@@]23CC[C@H]4[C@@](C)(CCC[C@@]4(C)C(=O)O)[C@@H]2CC[C@@H]1C3` [KAURENOIC ACID], the outcome in series [7] and in series [8] was inactive. Also, the result in [16] and in series [10] was Active. The LC50 in [11] amounted to 26.1 µM. Moreover, the 50% cytotoxic concentration (CC50) at 48 h in [12] was found to be 109 µM; in series [14] it was 45.4 µM. Moreover, the selectivity ratio in [13] came out at 4.2; in [15] it was 1.7.
Take `O=C(C1CCCCC1)N1CC(=O)N2CCc3ccccc3C2C1` (stereo not given) [PRAZIQUANTEL]: in series [6], the Activity is reported as 91.1%. Moreover, in series [11], the LC50 came to 1.1 µM. For the same compound, the CC50 at 48 h in series [12] and in series [14] was > 200 µM each time. In addition, the selectivity ratio in series [13] and in [15] was > 180 in each case.
